Results taken from ChEMBL document CHEMBL3217477, “Synthesis and biological evaluation of substituted - and -2,3-dihydrofuran naphthoquinones as potent anticandidal agents” (Medchemcomm, 2010).
≈ marks a conversion by molar mass, not a printed value.

Columns and labels:
[1] = test system: Pichia kudriavzevii; test: Antifungal activity against Candida krusei assessed as growth inhibition at 250 ug/mL after 24 hrs by hole plate diffusion method; assay type: functional; details: read-out: IZ
[2] = test system: Candida tropicalis; test: Antifungal activity against Candida tropicalis assessed as growth inhibition after 24 hrs by microbroth dilution method; assay type: functional
[3] = test system: Candida dubliniensis; test: Antifungal activity against Candida dubliniensis assessed as growth inhibition after 24 hrs by microbroth dilution method; assay type: functional
[4] = test system: Candida parapsilosis; test: Antifungal activity against Candida parapsilosis assessed as growth inhibition at 250 ug/mL after 24 hrs by hole plate diffusion method; assay type: functional; details: Lodderomyces parapsilosis, read-out: IZ
[5] = test system: Candida parapsilosis; test: Antifungal activity against Candida parapsilosis assessed as growth inhibition after 24 hrs by microbroth dilution method; assay type: functional; details: Lodderomyces parapsilosis
[6] = test system: Pichia kudriavzevii; test: Antifungal activity against Candida krusei assessed as growth inhibition after 24 hrs by microbroth dilution method; assay type: functional
[7] = test system: Candida albicans; test: Antifungal activity against Candida albicans assessed as growth inhibition at 250 ug/mL after 24 hrs by hole plate diffusion method; assay type: functional; details: read-out: IZ
[8] = test system: Candida dubliniensis; test: Antifungal activity against Candida dubliniensis assessed as growth inhibition at 250 ug/mL after 24 hrs by hole plate diffusion method; assay type: functional; details: read-out: IZ
[9] = Cytotoxicity against mouse NIH/3T3 cells assessed as dead cells at 12.5 ug/mL after 72 hrs by Alamar Blue assay relative to control; assay type: cell-based; details: nih3t3, 72 h
[10] = test system: Candida tropicalis; test: Antifungal activity against Candida tropicalis assessed as growth inhibition at 250 ug/mL after 24 hrs by hole plate diffusion method; assay type: functional; details: read-out: IZ
[11] = test system: Candida albicans; test: Antifungal activity against Candida albicans assessed as growth inhibition after 24 hrs by microbroth dilution method; assay type: functional
[12] = test system: Candida albicans; test: Antifungal activity against Candida albicans ATCC 90028 assessed as growth inhibition after 24 hrs by microbroth dilution method; assay type: functional; details: ATCC 90028, 24 h
[13] = Hemolytic activity in Swiss mouse erythrocytes at 50 ug/mL after 1 hr by spectrophotometric analysis relative to control; assay type: ADME, cell-based, Erythrocyte; details: read-out: Activity
[14] = test system: Kluyveromyces marxianus; test: Antifungal activity against Candida kefyr assessed as growth inhibition at 250 ug/mL after 24 hrs by hole plate diffusion method; assay type: functional; details: read-out: IZ
[15] = test system: Kluyveromyces marxianus; test: Antifungal activity against Candida kefyr assessed as growth inhibition after 24 hrs by microbroth dilution method; assay type: functional

Compound	zone of inhibition at 250 µg/mL [1]	MIC [2]	MIC [3]	zone of inhibition at 250 µg/mL [4]	MIC [5]	MIC [6]	zone of inhibition at 250 µg/mL [7]	zone of inhibition at 250 µg/mL [8]	mortality [9]	zone of inhibition at 250 µg/mL [10]	MIC [11]	MIC [12]	hemolysis at 1 h, 50 ug/mL [13]	zone of inhibition at 250 µg/mL [14]	MIC [15]
O=C1C2=C(OC3(C=CC=C3)C2)C(=O)c2ccccc21	10.8 mm	3.27 µM (≈ 0.818 µg/mL)	3.27 µM (≈ 0.818 µg/mL)	0 mm	13.1 µM (≈ 3.28 µg/mL)	12.8 µM (≈ 3.22 µg/mL)	16.6 mm	16.6 mm	9%	7.8 mm	2.09 µM (≈ 0.523 µg/mL)	13.1 µM (≈ 3.28 µg/mL)	5.92%	9.3 mm	52.5 µM (≈ 13.1 µg/mL)
CC1(C)CC2=C(O1)c1ccccc1C(=O)C2=O [NOR-BETA-LAPACHONE]	9.01 mm	54.8 µM (≈ 12.5 µg/mL)	6.84 µM (≈ 1.56 µg/mL)	7.41 mm	27.4 µM (≈ 6.25 µg/mL)	110 µM (≈ 25 µg/mL)	1.64 mm	0.1 mm	11%	4.78 mm	54.8 µM (≈ 12.5 µg/mL)	110 µM (≈ 25 µg/mL)	-2.4%	8.27 mm	110 µM (≈ 25 µg/mL)
O=C1C(=O)c2ccccc2C2=C1CC(c1ccc(Cl)cc1)O2 (configuration not stated)	5.65 mm	20.1 µM (≈ 6.25 µg/mL)	40.2 µM (≈ 12.5 µg/mL)	6.11 mm	10.1 µM (≈ 3.12 µg/mL)	40.2 µM (≈ 12.5 µg/mL)	1.5 mm	9.01 mm	0%	2.21 mm	40.2 µM (≈ 12.5 µg/mL)	80.5 µM (≈ 25 µg/mL)	-1.51%	1.96 mm	5.02 µM (≈ 1.56 µg/mL)
Cc1ccc(C2CC3=C(O2)C(=O)c2ccccc2C3=O)cc1 (configuration not stated)	4.94 mm	43.1 µM (≈ 12.5 µg/mL)	43.1 µM (≈ 12.5 µg/mL)	0 mm	43.1 µM (≈ 12.5 µg/mL)	86.2 µM (≈ 25 µg/mL)	10.4 mm	2.75 mm	0%	7.28 mm	43.1 µM (≈ 12.5 µg/mL)	86.2 µM (≈ 25 µg/mL)	-0.786%	4.27 mm	86.2 µM (≈ 25 µg/mL)
O=C1C(=O)c2ccccc2C2=C1CC(c1ccc(Br)cc1)O2 (configuration not stated)	11.3 mm	8.79 µM (≈ 3.12 µg/mL)	2.19 µM (≈ 0.778 µg/mL)	7.75 mm	8.79 µM (≈ 3.12 µg/mL)	4.39 µM (≈ 1.56 µg/mL)	6.17 mm	9.23 mm	0%	0 mm	35.2 µM (≈ 12.5 µg/mL)	70.4 µM (≈ 25 µg/mL)	4.59%	8.68 mm	4.39 µM (≈ 1.56 µg/mL)
CC1(c2ccccc2)CC2=C(O1)C(=O)c1ccccc1C2=O (configuration not stated)	7.05 mm	45.2 µM (≈ 13.1 µg/mL)	45.2 µM (≈ 13.1 µg/mL)	0 mm	45.2 µM (≈ 13.1 µg/mL)	172 µM (≈ 50 µg/mL)	16.1 mm	4.63 mm	0%	3.83 mm	45.2 µM (≈ 13.1 µg/mL)	45.2 µM (≈ 13.1 µg/mL)	4.54%	7.42 mm	90.5 µM (≈ 26.3 µg/mL)
Cc1ccc(C2CC3=C(O2)C(=O)c2ccccc2C3=O)c(C)c1 (configuration not stated)	9.87 mm	41.1 µM (≈ 12.5 µg/mL)	41.1 µM (≈ 12.5 µg/mL)	0 mm	82.1 µM (≈ 25 µg/mL)	82.1 µM (≈ 25 µg/mL)	1.38 mm	2.02 mm	0%	6.42 mm	41.1 µM (≈ 12.5 µg/mL)	82.1 µM (≈ 25 µg/mL)	-0.217%	0 mm	82.1 µM (≈ 25 µg/mL)
CC1(c2ccccc2)CC2=C(O1)c1ccccc1C(=O)C2=O (configuration not stated)	8.52 mm	11.3 µM (≈ 3.28 µg/mL)	5.65 µM (≈ 1.64 µg/mL)	7.34 mm	45.2 µM (≈ 13.1 µg/mL)	22.6 µM (≈ 6.57 µg/mL)	8.41 mm	12.9 mm	0%	3.48 mm	45.2 µM (≈ 13.1 µg/mL)	45.2 µM (≈ 13.1 µg/mL)	-1.2%	10.1 mm	11.3 µM (≈ 3.28 µg/mL)
Cc1ccc(C2CC3=C(O2)c2ccccc2C(=O)C3=O)c(C)c1 (configuration not stated)	10.8 mm	41.1 µM (≈ 12.5 µg/mL)	41.1 µM (≈ 12.5 µg/mL)	9 mm	10.3 µM (≈ 3.12 µg/mL)	5.13 µM (≈ 1.56 µg/mL)	2.93 mm	4.19 mm	17%	7.51 mm	82.1 µM (≈ 25 µg/mL)	82.1 µM (≈ 25 µg/mL)	4.37%	9.28 mm	41.1 µM (≈ 12.5 µg/mL)
O=C1C2=C(OC(c3ccc(Br)cc3)C2)C(=O)c2ccccc21 (configuration not stated)	7.5 mm	35.2 µM (≈ 12.5 µg/mL)	70.4 µM (≈ 25 µg/mL)	9.18 mm	35.2 µM (≈ 12.5 µg/mL)	70.4 µM (≈ 25 µg/mL)	1.39 mm	0.49 mm	0%	0 mm	35.2 µM (≈ 12.5 µg/mL)	70.4 µM (≈ 25 µg/mL)	2.53%	0 mm	70.4 µM (≈ 25 µg/mL)
OC(Cn1cncn1)(Cn1cncn1)c1ccc(F)cc1F [FLUCONAZOLE]	9.64 mm	313 µM (≈ 96 µg/mL)	1.63 µM (≈ 0.499 µg/mL)	10.4 mm	1.63 µM (≈ 0.499 µg/mL)	104 µM (≈ 32 µg/mL)	13 mm	12.8 mm		15 mm	1.63 µM (≈ 0.499 µg/mL)	1.63 µM (≈ 0.499 µg/mL)		21.2 mm	1.63 µM (≈ 0.499 µg/mL)
CCC(C)n1ncn(-c2ccc(N3CCN(c4ccc(OCC5COC(Cn6cncn6)(c6ccc(Cl)cc6Cl)O5)cc4)CC3)cc2)c1=O (configuration not stated) [ITRACONAZOLE]	30.3 mm	0.17 µM (≈ 0.12 µg/mL)	0.02 µM (≈ 0.0141 µg/mL)	26 mm	0.02 µM (≈ 0.0141 µg/mL)	0.7 µM (≈ 0.494 µg/mL)	23.1 mm	19.4 mm		23.6 mm	4.42 µM (≈ 3.12 µg/mL)	0.17 µM (≈ 0.12 µg/mL)		30.9 mm	0.08 µM (≈ 0.0565 µg/mL)
COc1cccc2c1C(=O)c1c(O)c3c(c(O)c1C2=O)C[C@@](O)(C(=O)CO)C[C@@H]3O[C@H]1C[C@H](N)[C@H](O)[C@H](C)O1 [DOXORUBICIN]									36%						
